Read-outs that look alike come from different tables or passages of the source.
How the values were obtained:
Format in all cases: biochemical
panel of kinases = biological target: T1, panel of kinases (Homo sapiens, UniProt P51813); assay: Inhibition of a panel of kinases (in vitro HotSpot kinase assay, 33P-ATP, 1 μM ATP), other kinases; conditions: BMX wild-type, read-out: BMX-WT IC50
T1 sequence (P51813 1-675): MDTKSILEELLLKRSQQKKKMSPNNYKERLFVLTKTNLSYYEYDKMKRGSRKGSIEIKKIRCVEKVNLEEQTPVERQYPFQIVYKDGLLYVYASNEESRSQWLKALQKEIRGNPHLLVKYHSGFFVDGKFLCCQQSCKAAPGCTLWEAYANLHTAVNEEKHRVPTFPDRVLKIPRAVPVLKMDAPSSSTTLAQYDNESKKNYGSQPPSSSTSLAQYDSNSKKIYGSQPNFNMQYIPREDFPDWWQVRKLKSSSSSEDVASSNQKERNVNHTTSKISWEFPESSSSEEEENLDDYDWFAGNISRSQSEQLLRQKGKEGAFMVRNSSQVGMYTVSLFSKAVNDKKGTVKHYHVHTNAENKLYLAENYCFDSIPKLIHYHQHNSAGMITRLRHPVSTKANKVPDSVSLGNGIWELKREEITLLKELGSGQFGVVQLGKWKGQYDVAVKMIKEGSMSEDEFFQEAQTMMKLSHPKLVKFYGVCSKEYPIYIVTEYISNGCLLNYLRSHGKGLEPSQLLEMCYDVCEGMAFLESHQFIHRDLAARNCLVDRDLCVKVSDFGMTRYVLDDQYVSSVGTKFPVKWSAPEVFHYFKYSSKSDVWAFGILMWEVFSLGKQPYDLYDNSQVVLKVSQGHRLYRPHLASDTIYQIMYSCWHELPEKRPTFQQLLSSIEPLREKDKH
Procedure, shortened: (§1)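 Radiometric read-out: 33P transfer to a suitable substrate by each purified enzyme, ATP at 1 μM. Values are degree of inhibition.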

Btk = biological target: T2, Btk (Homo sapiens, UniProt Q06187); assay: Btk in vitro inhibitory activity (one of Method A TR-FRET, Method B electrophoretic mobility shift, Method C radiometric filter binding)
T2 construct: purified from insect cells as a full-length construct containing a N-terminal 6X-His tag; His6 (N); made in house; host or cells: insect cells (Method C)
T2 sequence (Q06187 whole entry): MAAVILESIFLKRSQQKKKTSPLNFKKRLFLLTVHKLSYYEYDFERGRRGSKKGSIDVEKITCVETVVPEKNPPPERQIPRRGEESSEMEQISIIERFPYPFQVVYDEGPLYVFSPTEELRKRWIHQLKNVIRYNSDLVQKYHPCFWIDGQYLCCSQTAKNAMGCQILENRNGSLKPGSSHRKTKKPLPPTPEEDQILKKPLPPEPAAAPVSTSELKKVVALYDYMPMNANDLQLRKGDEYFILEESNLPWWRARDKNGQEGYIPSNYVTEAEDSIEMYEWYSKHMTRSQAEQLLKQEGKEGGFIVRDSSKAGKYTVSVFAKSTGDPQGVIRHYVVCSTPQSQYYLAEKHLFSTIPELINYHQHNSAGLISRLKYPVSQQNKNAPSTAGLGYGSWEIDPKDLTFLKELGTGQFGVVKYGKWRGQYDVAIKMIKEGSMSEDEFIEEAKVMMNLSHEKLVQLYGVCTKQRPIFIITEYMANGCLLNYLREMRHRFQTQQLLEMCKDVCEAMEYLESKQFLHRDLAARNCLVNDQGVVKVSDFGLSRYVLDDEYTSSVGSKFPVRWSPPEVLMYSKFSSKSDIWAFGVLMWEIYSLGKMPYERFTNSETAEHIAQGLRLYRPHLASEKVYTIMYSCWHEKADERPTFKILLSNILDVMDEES
Procedure, shortened: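 Three alternative formats were used. A radiometric filter-binding read used 8 nM full-length His-BTK with 0.2 mg/mL poly(Glu-Tyr) 4:1 (C); microfluidic separation of 1 μM FAM-peptide by 1 nM BTK gave IC50 from 12-point curves (B); TR-FRET at Km ATP, 0.5 nM Btk, gave Ki(app)-derived IC50 (A).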

TEC = biological target: T3, TEC (Homo sapiens, UniProt P42680); assay: Inhibition of a panel of kinases (in vitro HotSpot kinase assay, 33P-ATP, 1 μM ATP); conditions: for IC50: HotSpot kinase assay, 1 μM ATP; for TEC/Btk: ratio of TEC IC50 to Btk IC50 (selectivity)
T3 sequence (P42680 1-631): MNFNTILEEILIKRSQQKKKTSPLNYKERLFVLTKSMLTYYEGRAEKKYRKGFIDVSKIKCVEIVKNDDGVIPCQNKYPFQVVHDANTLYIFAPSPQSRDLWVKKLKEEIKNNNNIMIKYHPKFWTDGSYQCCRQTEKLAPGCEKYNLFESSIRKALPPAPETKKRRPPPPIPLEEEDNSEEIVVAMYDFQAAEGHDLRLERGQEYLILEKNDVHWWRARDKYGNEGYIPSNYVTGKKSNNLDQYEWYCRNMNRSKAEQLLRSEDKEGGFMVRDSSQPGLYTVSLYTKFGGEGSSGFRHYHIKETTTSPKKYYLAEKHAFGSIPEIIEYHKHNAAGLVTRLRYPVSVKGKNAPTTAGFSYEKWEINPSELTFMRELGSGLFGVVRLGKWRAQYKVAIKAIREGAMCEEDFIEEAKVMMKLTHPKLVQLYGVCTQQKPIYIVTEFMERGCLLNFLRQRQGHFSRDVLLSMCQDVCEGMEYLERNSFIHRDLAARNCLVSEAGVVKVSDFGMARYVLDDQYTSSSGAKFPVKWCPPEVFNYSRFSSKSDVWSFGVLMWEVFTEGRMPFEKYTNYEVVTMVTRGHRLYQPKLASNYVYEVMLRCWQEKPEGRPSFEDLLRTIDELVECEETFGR
Procedure, shortened: as §1

[1] = wild-type Btk, read-out: Btk-WT IC50
[2] = method is one of A, B or C, not stated which, read-out: IC50 values against Btk

| IC50 (panel of kinases) [nM] | IC50 (Btk; [1]) [nM] | IC50 (TEC) [nM] | TEC/Btk (TEC) | IC50 (Btk; [2]) [nM] | Compound |
| --- | --- | --- | --- | --- | --- |
| 39 | 0.205 | 20 | 98 | – | C=CC(=O)N1CC[C@@H](Nc2n[nH]c3nccc(-c4ccc(CNC(=O)c5noc(C(C)(C)C)n5)c(F)c4)c23)C1 [Compound 3, (R)—N-(4-(3-((1-acryloylpyrrolidin-3-yl)amino)-1H-pyrazolo[3,4-b]pyridin-4-yl)-2-fluorobenzyl)-5-(tert-butyl)-1,2,4-oxadiazole-3-carboxamide] |
| 226 | 8.87 | 475 | 54 | < 10 | C=CC(=O)N1CC[C@@H](Nc2n[nH]c3nccc(-c4ccc(CC(=O)Nc5noc(C(C)(C)C)n5)c(F)c4)c23)C1 [Example 135, N-(5-tert-butyl-1,2,4-oxadiazol-3-yl)-2-[2-fluoro-4-(3-{[(3R)-1-(prop-2-enoyl)pyrrolidin-3-yl]amino}-1H-pyrazolo[3,4-b]pyridin-4-yl)phenyl]acetamide] |
| 275 | 0.57 | 318 | 558 | < 10 | C=CC(=O)N1CC[C@@H](Nc2n[nH]c3nccc(-c4cccc(NC(=O)c5ccc(C(C)(C)C)cc5)c4CO)c23)C1 [Example 161, 4-tert-butyl-N-[2-(hydroxymethyl)-3-(3-{[(3R)-1-(prop-2-enoyl)pyrrolidin-3-yl]amino}-1H-pyrazolo[3,4-b]pyridin-4-yl)phenyl]benzamide] |
| 73 | 1.69 | 40 | 23 | – | C=CC(=O)N1CC[C@@H](Nc2n[nH]c3nccc(-c4cccc(-n5ccc6cc(C7CC7)cc(F)c6c5=O)c4CO)c23)C1 [Compound 18, 6-cyclopropyl-8-fluoro-2-[2-(hydroxymethyl)-3-(3-{[(3R)-1-(prop-2-enoyl)pyrrolidin-3-yl]amino}-1H-pyrazolo[3,4-b]pyridin-4-yl)phenyl]-1,2-dihydroisoquinolin-1-one] |
| 6 | 0.104 | 9 | 83 | < 10 | C=CC(=O)N1CCC[C@@H](Nc2n[nH]c3nccc(-c4ccc(CNC(=O)c5cc(C(C)C)on5)c(F)c4)c23)[C@H]1C [Example 173, N-{[2-fluoro-4-(3-{[(2R,3R)-2-methyl-1-(prop-2-enoyl)piperidin-3-yl]amino}-1H-pyrazolo[3,4-b]pyridin-4-yl)phenyl]methyl}-5-(propan-2-yl)-1,2-oxazole-3-carboxamide] |
| 249 | 0.0926 | 289 | 3121 | – | CC(C)(C)c1noc(C(=O)NCc2ccc(-c3ccnc4[nH]nc(N5CCC(NS(=O)(=O)C6CC6)CC5)c34)cc2F)n1 [Example 224, 3-tert-butyl-N-{[4-(3-{4-[(cyclopropanesulfonyl)amino]piperidin-1-yl}-1H-pyrazolo[3,4-b]pyridin-4-yl)-2-fluorophenyl]methyl}-1,2,4-oxadiazole-5-carboxamide] |
| 1510 | 482 | 1830 | – | – | C=CC(=O)N1CC[C@@H](Nc2n[nH]c3nccc(-c4ccnc(N5CCn6c(cc7c6CC(C)(C)C7)C5=O)c4C=O)c23)C1 [Example 286, (R)-2-(7,7-dimethyl-1-oxo-1,3,4,6,7,8-hexahydro-2H-cyclopenta[4,5]pyrrolo[1,2-a]pyrazin-2-yl)-4-(3-{[1-(prop-2-enoyl)pyrrolidin-3-yl]amino}-1H-pyrazolo[3,4-b]pyridin-4-yl)pyridine-3-carbaldehyde] |
| 510 | > 10000 | 3280 | >100 | – | C=CC(=O)N1CC[C@@H](Nc2n[nH]c3nccc(-c4cc(F)cc(CNC(=O)c5ccc(C(C)(C)C)cc5)c4)c23)C1 [Example 89, 4-tert-butyl-N-{[3-fluoro-5-(3-{[(3R)-1-(prop-2-enoyl)pyrrolidin-3-yl]amino}-1H-pyrazolo[3,4-b]pyridin-4-yl)phenyl]methyl}benzamide] |
| 55.7 | 30.6 | 253 | – | – | C=CC(=O)N1CC[C@@H](Nc2n[nH]c3nccc(-c4ccc(CNC(=O)c5cc(-c6ccccc6)on5)c(F)c4)c23)C1 [Example 345, N-{[2-fluoro-4-(3-{[(3R)-1-(prop-2-enoyl)pyrrolidin-3-yl]amino}-1H-pyrazolo[3,4-b]pyridin-4-yl)phenyl]methyl}-5-phenyl-1,2-oxazole-3-carboxamide] |
| 5700 | 1.49 | 8960 | 6013 | – | C[C@@H](NC(=O)c1nc(C(C)(C)C)no1)c1ccc(-c2ccnc3[nH]nc(N4CCS(=O)(=O)CC4)c23)cc1 [Example 220, 3-tert-butyl-N-[(1R)-1-{4-[3-(1,1-dioxo-1λ^6-thiomorpholin-4-yl)-1H-pyrazolo[3,4-b]pyridin-4-yl]phenyl}ethyl]-1,2,4-oxadiazole-5-carboxamide] |
| 4450 | 4.39 | 5880 | 1339 | – | C[C@@H](NC(=O)c1nc(C(C)(C)C)no1)c1ccc(-c2ccnc3[nH]nc(C4=CCCN(C(=O)N(C)C)C4)c23)cc1 [Example 243, 5-[4-(4-{(1R)-1-[(3-tert-butyl-1,2,4-oxadiazole-5-carbonyl)amino]ethyl}phenyl)-1H-pyrazolo[3,4-b]pyridin-3-yl]-N,N-dimethyl-3,6-dihydropyridine-1(2H)-carboxamide] |
| > 10000 | > 10000 | > 10000 | – | – | CC(C)(C)c1ccc(C(=O)NCc2ccc(-c3ccnc4[nH]nc(N[C@H]5CC[C@H](O)CC5)c34)cc2)cc1 [Compound 23, 4-tert-butyl-N-{[4-(3-{[(1r,4r)-4-hydroxycyclohexyl]amino}-1H-pyrazolo[3,4-b]pyridin-4-yl)phenyl]methyl}benzamide] |
| 1320 | 14.5 | 2610 | 180 | – | CC(C)c1cc(C(=O)NCc2ccc(-c3ccnc4[nH]nc(N5CC[C@@H](N)C5)c34)cc2F)on1 [Example 182, N-[(4-{3-[(3R)-3-aminopyrrolidin-1-yl]-1H-pyrazolo[3,4-b]pyridin-4-yl}-2-fluorophenyl)methyl]-3-(propan-2-yl)-1,2-oxazole-5-carboxamide] |
| 58.8 | 0.402 | 68.5 | – | – | C=CC(=O)N[C@@H]1CCN(c2n[nH]c3nccc(-c4ccc(CNC(=O)c5coc(C(C)C)n5)c(F)c4)c23)C1 [Example 359, N-{[2-fluoro-4-(3-{(3R)-3-[(prop-2-enoyl)amino]pyrrolidin-1-yl}-1H-pyrazolo[3,4-b]pyridin-4-yl)phenyl]methyl}-2-(propan-2-yl)-1,3-oxazole-4-carboxamide] |
| 6970 | 10.4 | 4510 | 434 | – | CC(C)(C)c1nc(C(=O)NCc2ccc(-c3ccnc4[nH]nc(N[C@@H]5CCCNC5)c34)cc2F)no1 [Example 69, 5-tert-butyl-N-{[2-fluoro-4-(3-{[(3R)-piperidin-3-yl]amino}-1H-pyrazolo[3,4-b]pyridin-4-yl)phenyl]methyl}-1,2,4-oxadiazole-3-carboxamide] |
| 3250 | 59.2 | 1040 | – | – | C[C@H]1CC[C@@H](Nc2n[nH]c3nccc(-c4ccc(CNC(=O)c5ccc(C(C)(C)O)cc5F)c(F)c4)c23)CN1C(=O)N(C)C [Example 414, (2S,5R)-5-{[4-(3-fluoro-4-{[2-fluoro-4-(2-hydroxypropan-2-yl)benzamido]methyl}phenyl)-1H-pyrazolo[3,4-b]pyridin-3-yl]amino}-N,N,2-trimethylpiperidine-1-carboxamide] |
